According to ChEMBL document CHEMBL3885861, “Open TG-GATES”:

Species: Rattus norvegicus
Assay: Open TG-GATES - Regimen: Daily Repeat
Assay type: toxicity, organism-based, Sprague-Dawley
Design: regimen Daily Repeat, gender Male, age 6 weeks
Conditions: in vivo, po, route gavage; for gamma-GTP / ALP / AST / BUN / CRE / Ca / Cl / DBIL / GLC / IP / K / LDH / Na / PL / RALB / TBIL / TC / TG / TP: tissue Plasma; for APTT / Bas / Eos / Fbg / Hb / Ht / Lym / MCH / MCHC / MCV / Mono / Neu / PT / Plat / RBC / Ret / WBC: tissue Blood; for KIDNEY_L / KIDNEY_R / KIDNEY_TOTAL: tissue Kidney; for LIVER: tissue Liver
[1] = 100 mg/kg, 72 h, dose level Low, time 3 day
[2] = 100 mg/kg, […], dose level Low, time 7 day
[3] = 100 mg/kg, […], dose level Low, time 14 day
[4] = 100 mg/kg, […], dose level Low, time 28 day

In the case of `COc1ccc2[nH]c([S+]([O-])Cc3ncc(C)c(OC)c3C)nc2c1` (centres undefined) [OMEPRAZOLE], the gamma-GTP (0 mg/kg, […], dose level Control, time 28 day) is reported as 0.8 IU/L, the TERMINAL_BW [1] is reported as 240.6 g and the APTT [1] is reported as 19 s. The Bas [1] was 0%, the Eos [1] was 1% and the Fbg [1] was 214.2 mg/dL. The Hb [1] was 13.1 g/dL, the Ht [1] was 38.3% and the Lym [1] was 77%. The MCH [1] was 21 pg, the MCHC [1] was 34.2% and the MCV [1] was 61.4 fL. It also gave a Mono [1] of 3.4%, a Neu [1] of 18.6% and a PT [1] of 12.3 s. The Plat [1] was 127.7 x10_4/uL, the RBC [1] was 624 x10_4/ul and the Ret [1] was 5.2%. It also gave a WBC [1] of 119.7 x10_2/uL, a KIDNEY_L [1] of 1.1 g and a KIDNEY_R [1] of 1.1 g. It also gave a KIDNEY_TOTAL [1] of 2.2 g, an LIVER [1] of 12.4 g and an ALP [1] of 887.8 IU/L. For the same compound, the AST [1] was 67.8 IU/L, the BUN [1] was 15.2 mg/dL and the CRE [1] was 0.3 mg/dL. For the same compound, the Ca [1] was 10.6 mg/dL, the Cl [1] was 101.8 meq/L and the DBIL [1] was 0.08 mg/dL. It also gave a GLC [1] of 220.6 mg/dL, an IP [1] of 8.8 mg/dL and a K [1] of 3.8 meq/L. The LDH [1] was 157.2 IU/L, the Na [1] was 141.4 meq/L and the PL [1] was 145 mg/dL. It also gave an RALB [1] of 3.4 g/dL, a TBIL [1] of 0.1 mg/dL and a TC [1] of 72.6 mg/dL. For the same compound, the TG [1] was 99.2 mg/dL, the TP [1] was 5.6 g/dL and the gamma-GTP [1] was 1.2 IU/L. For the same compound, the TERMINAL_BW [2] was 271.5 g, the TERMINAL_BW [3] was 323 g and the TERMINAL_BW [4] was 390.5 g. For the same compound, the APTT [2] was 20 s, the Bas [2] was 0% and the Eos [2] was 1%. For the same compound, the Fbg [2] was 221 mg/dL, the Hb [2] was 13.5 g/dL and the Ht [2] was 39.5%. The Lym [2] was 82%, the MCH [2] was 20.7 pg and the MCHC [2] was 34.2%. It also gave an MCV [2] of 60.6 fL, a Mono [2] of 3.4% and a Neu [2] of 13.2%. It also gave a PT [2] of 12.2 s, a Plat [2] of 132.7 x10_4/uL and an RBC [2] of 652 x10_4/ul. The Ret [2] was 4.7%, the WBC [2] was 114.9 x10_2/uL and the APTT [3] was 20.2 s. For the same compound, the Bas [3] was 0%, the Eos [3] was 0.8% and the Fbg [3] was 208.4 mg/dL. The Hb [3] was 14.2 g/dL, the Ht [3] was 40.8% and the Lym [3] was 82.8%. For the same compound, the MCH [3] was 20.5 pg, the MCHC [3] was 34.7% and the MCV [3] was 59.1 fL. For the same compound, the Mono [3] was 2.2%, the Neu [3] was 13.6% and the PT [3] was 12.1 s. For the same compound, the Plat [3] was 133 x10_4/uL, the RBC [3] was 691 x10_4/ul and the Ret [3] was 4.1%. It also gave a WBC [3] of 101.4 x10_2/uL, an APTT [4] of 21.2 s and a Bas [4] of 0%. It also gave an Eos [4] of 1.2%, a Fbg [4] of 210.4 mg/dL and a Hb [4] of 15.1 g/dL. For the same compound, the Ht [4] was 43.9%, the Lym [4] was 79.6% and the MCH [4] was 18.6 pg. It also gave an MCHC [4] of 34.3%, an MCV [4] of 54.3 fL and a Mono [4] of 2.2%. The Neu [4] was 16.6%, the PT [4] was 12.3 s and the Plat [4] was 106.5 x10_4/uL. The RBC [4] was 809.8 x10_4/ul, the Ret [4] was 2.6% and the WBC [4] was 100.5 x10_2/uL. The KIDNEY_L [2] was 1.1 g, the KIDNEY_R [2] was 1.1 g and the KIDNEY_TOTAL [2] was 2.2 g. It also gave a KIDNEY_L [3] of 1.3 g, a KIDNEY_R [3] of 1.3 g and a KIDNEY_TOTAL [3] of 2.5 g. It also gave a KIDNEY_L [4] of 1.4 g, a KIDNEY_R [4] of 1.3 g and a KIDNEY_TOTAL [4] of 2.7 g. The LIVER [2] was 13.3 g, the LIVER [3] was 14.7 g and the LIVER [4] was 16.4 g. It also gave an ALP [2] of 805 IU/L, an AST [2] of 65 IU/L and a BUN [2] of 15.6 mg/dL. It also gave a CRE [2] of 0.4 mg/dL, a Ca [2] of 10.6 mg/dL and a Cl [2] of 101.4 meq/L. It also gave a DBIL [2] of 0.066 mg/dL, a GLC [2] of 200.4 mg/dL and an IP [2] of 8.3 mg/dL. The K [2] was 4 meq/L, the LDH [2] was 229.6 IU/L and the Na [2] was 140.8 meq/L. For the same compound, the PL [2] was 150 mg/dL, the RALB [2] was 3.4 g/dL and the TBIL [2] was 0.1 mg/dL. For the same compound, the TC [2] was 77.8 mg/dL, the TG [2] was 85.2 mg/dL and the TP [2] was 5.7 g/dL. The gamma-GTP [2] was 0.8 IU/L, the ALP [3] was 771.6 IU/L and the AST [3] was 66.4 IU/L. For the same compound, the BUN [3] was 15.8 mg/dL, the CRE [3] was 0.5 mg/dL and the Ca [3] was 10.3 mg/dL. The Cl [3] was 101.4 meq/L, the DBIL [3] was 0.074 mg/dL and the GLC [3] was 210.8 mg/dL. For the same compound, the IP [3] was 7.9 mg/dL, the K [3] was 3.7 meq/L and the LDH [3] was 198.2 IU/L. It also gave a Na [3] of 140.6 meq/L, a PL [3] of 145.8 mg/dL and an RALB [3] of 3.4 g/dL. It also gave a TBIL [3] of 0.1 mg/dL, a TC [3] of 73.4 mg/dL and a TG [3] of 96.8 mg/dL. The TP [3] was 5.8 g/dL, the gamma-GTP [3] was 1 IU/L and the ALP [4] was 538.6 IU/L. The AST [4] was 59.2 IU/L, the BUN [4] was 15.4 mg/dL and the CRE [4] was 0.5 mg/dL. For the same compound, the Ca [4] was 10.5 mg/dL, the Cl [4] was 101.4 meq/L and the DBIL [4] was 0.088 mg/dL. The GLC [4] was 220 mg/dL, the IP [4] was 7.3 mg/dL and the K [4] was 3.6 meq/L. The LDH [4] was 174.8 IU/L, the Na [4] was 141.8 meq/L and the PL [4] was 141 mg/dL. It also gave an RALB [4] of 3.6 g/dL, a TBIL [4] of 0.1 mg/dL and a TC [4] of 69.2 mg/dL. It also gave a TG [4] of 133 mg/dL and a TP [4] of 6.2 g/dL.
